The target in experiment [1] is Carboxypeptidase G2 (CPG2) from Pseudomonas strain RS-16 (Pseudomonas sp., UniProt P06621). The settings on record: read-out: Km vallues using methotrexate as substrate.
Experimental: (§1) CPG2 activity was determined after J L McCullough et al, J.Biol.Chem, 1971, 246, 7207. A.lml reaction cuvette containing 0.9 ml of 0.1 M Tris-HCl, pH 7.3 plus 0.2 mM ZnSO4 and 0.1 ml of 0.6 mM methotrexate was equilibrated at 37°C. Enzyme extract was added to the test cuvette and the decrease in absorbance at 320 nm measured using a Pye-Unicam SP1800 double-beam spectrophotometer. Enzyme activity per ml extract was calculated as Δ 320 nm absorbance/min divided by 8.3, which is equivalent to the hydrolysis of 1 µmol of MTX/min at 37°C.
(§2) To determine whether the cloned gene= product in E.coli had the same properties as CPG2 from the pseudomonad, enzyme was purified from E.coli carrying pNM21.
The target of experiment [2] is T1, Carboxypeptidase G2 (CPG2) purified from E.coli clone pNM21 (cloned gene from Pseudomonas species strain RS-16) (Pseudomonas sp., UniProt P06621).
T1 construct: Amino acids 23 to 415 are the CPG2 structural gene; made in house; host or cells: E. coli W5445 carrying plasmid pNM21
T1 sequence (P06621 23-415): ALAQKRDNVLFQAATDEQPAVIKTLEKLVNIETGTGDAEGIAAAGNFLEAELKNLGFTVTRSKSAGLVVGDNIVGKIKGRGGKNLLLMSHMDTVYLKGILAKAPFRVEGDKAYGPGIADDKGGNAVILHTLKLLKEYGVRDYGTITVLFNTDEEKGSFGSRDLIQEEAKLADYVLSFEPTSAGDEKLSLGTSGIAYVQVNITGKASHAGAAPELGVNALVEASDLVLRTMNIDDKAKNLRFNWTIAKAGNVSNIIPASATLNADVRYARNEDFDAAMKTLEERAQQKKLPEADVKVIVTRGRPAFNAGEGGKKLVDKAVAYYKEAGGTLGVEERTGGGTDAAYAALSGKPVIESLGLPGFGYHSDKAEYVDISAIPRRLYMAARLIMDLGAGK
The experiment is described as follows: Km determination of purified carboxypeptidase G2 synthesised in E.coli (cloned gene product), methotrexate as substrate. The format is biochemical, Pseudomonas species strain RS-16 (expressed in E.coli). The settings on record: CPG2 purified from E.coli carrying pNM21; read-out: Km vallues using methotrexate as substrate.
Experimental: as §1, §2

Structures are written as SMILES.

One compound from EP0121352A1, “A leader sequence to promote the secretion of gene products” (priority 1983, dated 1984) can be followed below.

Carboxypeptidase G2 (CPG2) from Pseudomonas strain RS-16, sequence (P06621 23-415): as above

In the case of `CN(Cc1cnc2nc(N)nc(N)c2n1)c1ccc(C(=O)N[C@@H](CCC(=O)O)C(=O)O)cc1` [methotrexate], the Km was 8 µM in experiment [1] and 7.4 µM in experiment [2].
